This assay addresses tubulin (αβ-tubulin heterodimer). The assay is described as follows: competition with [3H]colchicine binding. Also on record: species or system Bos taurus.

pKi: −log10 of the molar value.

As usually defined, the pKi is the Ki on a negative log10 scale, so that one unit is a factor of ten. Higher therefore signals a low Ki. Consider `COC(=O)C1=CC[C@@]23CC[C@@H]([C@@](C)(/C=C/C=C(\C)C(=O)O)OC2=O)[C@@]3(OC(C)=O)CC1` [PAB, pseudolaric acid B], for which the pKi was 4.82 to 4.92.

The values are drawn from PMC3402633 (2012).
